The values that follow come from US9714249B2 (Novartis AG, priority 2013, dated 2017).

The target in one experiment is BRD3 (His-Brd3(20-477)) (Homo sapiens (Human), UniProt Q15059). Nature of the experiment: TR-FRET in-vitro binding assay for BRD3. As to conditions: acetyl-histone H4 peptide. Here is the method:
(§1) All assays were performed in 384 well microtiter plates. Each assay plate contained 8-point serial dilutions for 40 test compounds, plus 16 high- and 16 low controls. Liquid handling and incubation steps were done on an Innovadyne Nanodrop Express equipped with a robotic arm (Thermo CatX, Perkin Elmer/Caliper Twister II) and an incubator (Liconic STX40, Thermo Cytomat 2C450). The assay plates were prepared by addition of 50 nl per well of compound solution in 90% DMSO HummingBird nanodispenser (Zinsser Analytic). The assay was started by stepwise addition of 4.5 μl per well of bromo domain protein (50 mM HEPES, pH 7.5, 0.005% Tween20, 0.1% BSA, 50 mM NaCl, 45 nM His-Brd2(60-472) or 45 nM His-Brd3(20-477) or 45 nM His-Brd4(44-477) all proteins produced in-house) and 4.5 μl per well of peptide solution (50 mM HEPES, pH 7.5, 0.005% Tween20, 0.1% BSA, 50 mM NaCl, 60 nM acetyl-histone H4 (AcK 5, 8, 12, 16) (Biosyntan GmbH)). Reactions were incubated at 30° C. for 35 minutes. Subsequently 4.5 μl per well detection mix (50 mM HEPES, pH 7.5, 0.005% Tween20, 0.1% BSA, 50 mM NaCl, 3 nM Eu-labeled anti-His6 antibody, 21 nM streptavidin-allophycocyanin) were added. After 35 minutes incubation at 30° C., plates were measured in a Perkin Elmer EnVision multilabel reader. Concentrations causing 50% inhibition (1050) values were determined from percent inhibition values at different compound concentrations by non-linear regression analysis.
(§2) Test compounds were dissolved in DMSO (10 mM) and transferred into 1.4 mL flat bottom or V-shaped Matrix tubes carrying a unique 2D matrix. The stock solutions were stored at […] if not used immediately. For the test procedure the vials were defrosted and identified by a scanner whereby a working sheet was generated that guided the subsequent working steps. Compound dilutions were made in 96 well plates. This format enabled the assay of maximally 40 individual test compounds at 8 concentrations (single points) including 4 reference compounds, if desired (known BET inhibitors from the prior art, for this and other assays of the type disclosed herein). The dilution protocol included the production of “pre-dilution plates”, “master plates” and “assay plates”.
(§3) Pre-dilution plates: 96 polypropylene well plates were used as pre-dilution plates. A total of 4 pre-dilution plates were prepared including 10 test compounds each on the plate positions A1-A10, one standard compound at A11 and one DMSO control at A12. All dilution steps were done on a HamiltonSTAR robot. Master plates: 30 μL of individual compound dilutions including standard compound and controls of the 4 “pre-dilution plates” were transferred into a 384 “master plate” including the following concentrations 10000, 3003, 1000, 300, 100, 30, 10 and 3 μM, respectively in 90% of DMSO. Assay plates: Identical “assay plates” were then prepared by pipetting 50 nL each of compound dilutions of the “master plates” into 384-well “assay plates” by means of a HummingBird 384-channel dispenser. These plates were used directly for the assay which was performed in a total volume of 13.55 μL. This led to a final compound concentration of 37, 11, 3.7, 1.1, 0.37, 0.11, 0.037 and 0.011 μM and a final DMSO concentration of 0.37% in the assay. Cell Growth Inhibition Assay
In general terms: In TR-FRET formats the signal depends on donor and acceptor labels being close together.

In experiment [1] the target is CREBBP bromodomain (His-CREBBP (1081-1197)) (Homo sapiens (Human), UniProt Q92793). Kind of experiment: AlphaScreen in-vitro binding assay for CREBBP. As to conditions: acetyl-histone H4 peptide. Here is the method: In order to assess bromodomain selectivity, we set up a binding assay using the bromodomain encoded by the CREBBP gene. […] Reactions were incubated at 30° C. for 35 minutes. Subsequently 4.5 μl per well detection mix (50 mM HEPES, pH 7.5, 0.005% Tween20, 0.02% BSA, 150 mM NaCl, 45 μg/ml Ni-chelate acceptor beads, 45 μg/ml streptavidin-donor beads) (Perkin Elmer)) were added. After 60 minutes incubation at room temperature, plates were measured in a Perkin Elmer EnVision multilabel reader. IC50 values were determined from percent inhibition values at different compound concentrations by non-linear regression analysis.
as §2
Pre-dilution plates: 96 polypropylene well plates were used as pre-dilution plates. A total of 4 pre-dilution plates were prepared including 10 test compounds each on the plate positions A1-A10, one standard compound at A11 and one DMSO control at A12. All dilution steps were done on a HamiltonSTAR robot. […] These plates were used directly for the assay which was performed in a total volume of 13.55 μL. […] Cell Growth Inhibition Assay
In general terms: Bead proximity is the source of the signal in Alpha formats.

Another experiment deals with MV-4-11 cells. Kind of experiment: Cell growth inhibition assay (CellTiter-Glo), MV-4-11. The format is cell-based, human. As to conditions: MV-4-11, 4 days; for GI50: Homo sapiens, MV4-11, 96 h, half-maximal growth inhibition; for MV-4-11 TGI: total growth inhibition. The procedure: (§4) The human leukemia cell lines MV-4-11, THP-1 and K-562 were employed to characterize the effect of BET inhibitors on cellular proliferation and viability. Cells were obtained from the American Type Culture Collection (ATCC) and cultured at 37° C. in a humidified 5% CO2 incubator in the following media: MV-4-11: DMEM high glucose (Animed #1-26F01-I), 10% FCS (Animed #2-01F26-I), 4 mM L-Glutamine (Animed #5-10K50), 1 mM Sodium Pyruvate (Animed # G03625P), 1× Penicillin-Streptomycin (Animed # F12478P); K-562: Iscove's MEM (Animed #1-28F16-I), 10% FCS (Animed #2-01F26-I), 4 mM L-Glutamine (Animed #5-10K50), 1× Penicillin-Streptomycin (Animed # F12478P); THP-1: RPMI-1640 (Animed #1-41F01-I), 10% FCS (Animed #2-01F26-I), 2 mM L-Glutamine (Animed #5-10K50), 10 mM HEPES (Animed #5-31F100), 1 mM Sodium Pyruvate (Animed # G03625P), 1× Penicillin-Streptomycin (Animed # F12478P). The AML lines MV-4-11 and THP-1 are very sensitive to BET inhibitors and show massive cell death upon BET inhibition (Zuber et al., Nature, 478 (2011), 524-8). Compound-mediated suppression of cell proliferation/viability was assessed by quantification of cellular ATP levels using the CellTiter-Glo (CTG) reagent (Promega). Briefly, cells were seeded in 20 μl fresh medium into 384-well plates, followed by addition of 5 μl medium containing compound dilutions at 5-fold their final intended concentration. Dose-response effects were assessed by 3-fold serial dilutions of the test compound, starting at 10 μM. Following incubation of the cells for 4 days at 37° C. and 5% CO2, the effect of inhibitors on cell viability was quantified following addition of 20 μl CTG and luminescence quantification (integration time: 100 ms) as per vendor manual, using a correspondingly equipped Tecan M200 multi-mode platereader (TECAN, Switzerland). For data analysis, the assay background value determined in wells containing medium, but no cells, was subtracted from all data points. To enable differentiation of cytotoxic from cytostatic compounds, the number of viable cells is assessed relative to that observed at the time of compound addition using a separate cell plate (day 0). The effect of a particular test compound concentration on cell proliferation/viability is expressed as percentage of the background- and day 0-corrected luminescence reading obtained for cells treated with vehicle only (DMSO, 0.1% final concentration), which is set as 100%, whereas that luminescence reading for wells containing medium is set as −100%. Compound concentrations leading to half-maximal (1050) and total growth inhibition (TGI) were determined using standard four parameter curve fitting.
On the technique in general: Cellular ATP, detected with luciferase, serves as a proxy for viable cell number.

A further experiment deals with THP-1 cells. Kind of experiment: Cell growth inhibition assay (CellTiter-Glo), THP-1. The format is cell-based, human. The settings on record: THP-1, 4 days; for GI50: Homo sapiens, 96 h, half-maximal growth inhibition; for THP-1 TGI: total growth inhibition. Here is the method: as §4
Another experiment relates to K-562 cells. Nature of the experiment: Cell growth inhibition assay (CellTiter-Glo), K-562. It is filed as cell-based, human. The settings on record: K-562, 4 days; for GI50: Homo sapiens, K562, 96 h, half-maximal growth inhibition; for K-562 TGI: total growth inhibition. The procedure: as §4
The target of the next experiment is BRD4-NUT-fusion (Homo sapiens (Human), UniProt O60885+Q86Y26). Kind of experiment: Nut-foci formation assay (HCS) in HCC2494 NUT midline carcinoma cells. The settings on record: 24 hours, nuclear BRD4-NUT foci, immunofluorescence. It is filed as cell-based. The procedure: Compound-mediated inhibition of BRD4 activity was monitored by quantification of the number and intensity of nuclear BRD4-NUT foci using automated immunofluorescence microscopy. Briefly, 5000 cells in 20 μl fresh medium were seeded into Poly-D-Lysine-precoated 384-well plates and incubated overnight at 37° C. and 5% CO2, followed by addition of 5 μl medium containing compound dilutions at 5-fold their final intended concentration. Dose-response effects were assessed by 3-fold serial dilutions of the test compound, starting at 10 μM. […] Assay plates were imaged using the appropriate filter sets on the Cellomics VTi automated fluorescence microscopy platform (ThermoFisher Scientific) and the population average of the number of NUT-foci per nucleus is quantified using the Cellomics Spot Detection BioApplication image analysis algorithm (ThermoFisher Scientific). The effect of a particular test compound concentration on NUT-foci number and intensity is expressed as percentage of the value obtained for cells treated with vehicle only (DMSO, 0.1% final concentration), which was set as 100.

The target in another experiment is BRD2 (His-Brd2(60-472)) (Homo sapiens (Human), UniProt P25440). Nature of the experiment: TR-FRET in-vitro binding assay for BRD2. The settings on record: acetyl-histone H4 peptide. Here is the method:
as §1, §2, §3

Each structure is given as a SMILES string.

Chain of CREBBP bromodomain (His-CREBBP (1081-1197)) (Q92793 1081-1197): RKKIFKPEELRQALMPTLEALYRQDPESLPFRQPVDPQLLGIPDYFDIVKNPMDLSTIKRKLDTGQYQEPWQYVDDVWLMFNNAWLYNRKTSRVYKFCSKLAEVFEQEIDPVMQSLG
Chain of BRD3 (His-Brd3(20-477)) (Q15059 20-477, species assumed): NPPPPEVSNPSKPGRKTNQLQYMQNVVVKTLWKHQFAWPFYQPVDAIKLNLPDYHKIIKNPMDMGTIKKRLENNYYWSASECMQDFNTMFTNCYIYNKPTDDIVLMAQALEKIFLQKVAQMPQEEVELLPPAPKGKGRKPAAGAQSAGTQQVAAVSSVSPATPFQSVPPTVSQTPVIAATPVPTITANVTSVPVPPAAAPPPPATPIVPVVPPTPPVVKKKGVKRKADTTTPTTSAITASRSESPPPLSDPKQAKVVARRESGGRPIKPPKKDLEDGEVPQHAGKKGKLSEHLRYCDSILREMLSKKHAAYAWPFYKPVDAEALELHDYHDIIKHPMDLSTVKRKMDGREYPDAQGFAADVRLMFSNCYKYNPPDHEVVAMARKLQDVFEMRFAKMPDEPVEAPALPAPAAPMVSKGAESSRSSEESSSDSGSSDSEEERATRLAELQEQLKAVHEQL
Chain of BRD2 (His-Brd2(60-472)) (P25440 60-472, species assumed): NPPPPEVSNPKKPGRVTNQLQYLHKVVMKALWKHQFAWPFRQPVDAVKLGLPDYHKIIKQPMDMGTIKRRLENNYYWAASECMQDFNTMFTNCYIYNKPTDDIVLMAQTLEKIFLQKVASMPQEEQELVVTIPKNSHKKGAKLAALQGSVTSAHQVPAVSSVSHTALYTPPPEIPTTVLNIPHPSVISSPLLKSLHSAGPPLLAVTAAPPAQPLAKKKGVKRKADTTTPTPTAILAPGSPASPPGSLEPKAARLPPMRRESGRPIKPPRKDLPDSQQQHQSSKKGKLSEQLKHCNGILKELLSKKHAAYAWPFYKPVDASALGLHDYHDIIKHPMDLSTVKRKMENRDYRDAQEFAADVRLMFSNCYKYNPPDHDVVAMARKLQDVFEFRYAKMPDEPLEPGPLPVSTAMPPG

On to `Cc1[nH]nc2c1C(=O)N(c1cc(C)c(=O)n(C)c1)C2c1ccc(Cl)cc1` (stereo not drawn) [Example 9, 6-(4-chlorophenyl)-5-(1,5-dimethyl-6-oxo-1,6-dihydropyridin-3-yl)-3-methyl-5,6-dihydropyrrolo[3,4-c]pyrazol-4(2H)-one], for which the IC50 (as a rule, the midpoint of a concentration-inhibition curve) was found to be 67 nM at BRD3 (His-Brd3(20-477)) and 3000 nM in experiment [1]. For the same compound, the GI50 (usually the concentration that inhibits growth by half) in the experiment on MV-4-11 cells was 51 nM; with THP-1 cells it was 88.5 nM; in the experiment on K-562 cells it was 322 nM. The “MV-4-11 TGI” value in the experiment with MV-4-11 cells came to 72.1 nM. Besides, the “THP-1 TGI” value in the experiment on THP-1 cells was determined as 206 nM. The “K-562 TGI” value with K-562 cells was over 10000 nM.

As to `COc1ncccc1-n1nc(C)c2c1C(c1ccc(Cl)cc1)N(c1cc(C)c(=O)n(C)c1)C2=O` (stereo not drawn) [Example 17a, 6-(4-chlorophenyl)-5-(1,5-dimethyl-6-oxo-1,6-dihydropyridin-3-yl)-1-(2-methoxypyridin-3-yl)-3-methyl-5,6-dihydropyrrolo[3,4-c]pyrazol-4(1H)-one], in the experiment with MV-4-11 cells, the GI50 turned out to be 58.1 nM and the “MV-4-11 TGI” value turned out to be 87.9 nM. In addition, in the experiment with THP-1 cells, halving of growth (GI50) required 102 nM and the “THP-1 TGI” value is 175 nM. In addition, in the experiment on K-562 cells, the GI50 amounted to 293 nM and the “K-562 TGI” value was over 10000 nM. The IC50 against BRD4-NUT-fusion turned out to be 56.1 nM.

As for `CCOc1ncccc1-n1nc(C)c2c1C(c1ccc(Cl)cc1)N(c1cc(C)c(=O)n(C)c1)C2=O` (stereo not drawn) [Example 18a, 6-(4-chlorophenyl)-5-(1,5-dimethyl-6-oxo-1,6-dihydropyridin-3-yl)-1-(2-ethoxypyridin-3-yl)-3-methyl-5,6-dihydropyrrolo[3,4-c]pyrazol-4(1H)-one], in the experiment on MV-4-11 cells, the GI50 stood at 89.3 nM and the “MV-4-11 TGI” value was found to be 101 nM. Further, in the experiment with THP-1 cells, the GI50 amounted to 89.6 nM and the “THP-1 TGI” value amounted to 175 nM. In the experiment on K-562 cells, growth was halved (GI50) at 574 nM and the “K-562 TGI” value was over 10000 nM. Besides, the IC50 against BRD4-NUT-fusion came out at 66.6 nM.

Consider `Cc1cc(N2C(=O)c3c(C4CC4)n[nH]c3C2c2ccc(Cl)cc2)cn(C)c1=O` (stereo not drawn) [Example 23, 6-(4-chlorophenyl)-3-cyclopropyl-5-(1,5-dimethyl-6-oxo-1,6-dihydropyridin-3-yl)-5,6-dihydropyrrolo[3,4-c]pyrazol-4(1H)-one], for which the values for the IC50 (at BRD2 (His-Brd2(60-472)); at BRD3 (His-Brd3(20-477)); in experiment [1]) were 52 nM, 49 nM and 3300 nM, respectively. Moreover, the values for the GI50 with MV-4-11 cells, with THP-1 cells and in the experiment on K-562 cells were 25.6 nM, 59.4 nM and 170 nM, respectively. In addition, in the experiment with MV-4-11 cells, the “MV-4-11 TGI” value is 48 nM. Also, the “THP-1 TGI” value in the experiment on THP-1 cells stood at 128.5 nM. Further, the “K-562 TGI” value in the experiment on K-562 cells was over 10000 nM.

Compound `Cc1[nH]nc2c1C(=O)N(c1cc(C)c(=O)n(C)c1)[C@@H]2c1ccc(Cl)cc1` [Example 27, (R)-6-(4-chlorophenyl)-5-(1,5-dimethyl-6-oxo-1,6-dihydropyridin-3-yl)-3-methyl-5,6-dihydropyrrolo[3,4-c]pyrazol-4(2H)-one] came in with an IC50 on BRD3 (His-Brd3(20-477)) of 27 nM. In addition, in experiment [1], the IC50 stood at 1200 nM. Further, in the experiment with MV-4-11 cells, the GI50 came to 27.1 nM and the “MV-4-11 TGI” value was determined as 49.6 nM. Besides, in the experiment on THP-1 cells, growth was halved (GI50) at 56.2 nM and the “THP-1 TGI” value turned out to be 115 nM. Moreover, in the experiment with K-562 cells, growth was halved (GI50) at 112 nM and the “K-562 TGI” value is over 10000 nM.
